Measurements as given in ChEMBL document CHEMBL5120927, “LEGO-Lipophosphonoxins: A Novel Approach in Designing Membrane Targeting Antimicrobials” (J Med Chem, 2022).

Key:
Enterococcus faecalis = test: Antibacterial activity against Enterococcus faecalis ATCC 29212 = CCM 4224 assessed as inhibition of bacterial growth incubated for 24 hrs by microdilution assay; assay type: functional
Staphylococcus aureus [1] = test: Antibacterial activity against Staphylococcus aureus ATCC 29213 = CCM 4223 assessed as inhibition of bacterial growth incubated for 24 hrs by microdilution assay; assay type: functional
Staphylococcus aureus [2] = test: Antibacterial activity against Staphylococcus aureus ATCC 29213 = CCM 4223 assessed as inhibition of bacterial growth incubated for 24 hrs in presence of BSA by microdilution assay; assay type: functional
Escherichia coli [3] = test: Antibacterial activity against Escherichia coli ATCC 25922 = CCM 3954 assessed as inhibition of bacterial growth incubated for 24 hrs by microdilution assay; assay type: functional
Escherichia coli [4] = test: Antibacterial activity against Escherichia coli ATCC 25922 = CCM 3954 assessed as inhibition of bacterial growth incubated for 24 hrs in presence of BSA by microdilution assay; assay type: functional
Pseudomonas aeruginosa [5] = test: Antibacterial activity against Pseudomonas aeruginosa ATCC 27853 = CCM 3955 assessed as inhibition of bacterial growth incubated for 24 hrs by microdilution assay; assay type: functional
[6] = Hemolytic activity in human RBC assessed as haemoglobin release measured after 3 hr; assay type: toxicity, cell-based, Erythrocyte; details: red blood cells (erythrocytes)
[7] = Gradient chromatographic hydrophobicity index of the compound at pH 3.7 by HPLC analysis; assay type: ADME
[8] = test system: Staphylococcus epidermidis; test: Antibacterial activity against Staphylococcus epidermidis CCM 7221 assessed as inhibition of bacterial growth incubated for 24 hrs by microdilution assay; assay type: functional
Staphylococcus aureus [9] = test: Antibacterial activity against methicillin resistant Staphylococcus aureus 4591/A assessed as reduction in microbial growth incubated for 24 hrs by microdilution assay; assay type: functional
Escherichia coli [10] = test: Antibacterial activity against multidrug-resistant Escherichia coli CE5556 expressing CTX-M-15 assessed as reduction in microbial growth incubated for 24 hrs by microdilution assay; assay type: functional
Enterococcus faecium = test: Antibacterial activity against vancomycin resistant Enterococcus faecium 419/ANA assessed as reduction in microbial growth incubated for 24 hrs by microdilution assay; assay type: functional
Pseudomonas aeruginosa [11] = test: Antibacterial activity against multidrug-resistant Pseudomonas aeruginosa assessed as reduction in microbial growth incubated for 24 hrs by microdilution assay; assay type: functional

| Compound | MIC (Enterococcus faecalis) [µg/mL] | MIC (Staphylococcus aureus [1]) [µg/mL] | MIC (Staphylococcus aureus [2]) [µg/mL] | MIC (Escherichia coli [3]) [µg/mL] | MIC (Escherichia coli [4]) [µg/mL] | MIC (Pseudomonas aeruginosa [5]) [µg/mL] | HC50 at 3 h [6] [µg/mL] | CHI [7] | MIC [8] [µg/mL] | MIC (Staphylococcus aureus [9]) [µg/mL] | MIC (Escherichia coli [10]) [µg/mL] | MIC (Enterococcus faecium) [µg/mL] | MIC (Pseudomonas aeruginosa [11]) [µg/mL] |
| --- | --- | --- | --- | --- | --- | --- | --- | --- | --- | --- | --- | --- | --- |
| CCCCOP(=O)(CCN(CCCN)CCCN)OCCCCCCCCCCCCOP(=O)(CCN(CCCN)CCCN)OCCCC.Cl.Cl.Cl.Cl.Cl.Cl (stereo not given) | 32 | 4 | 16 | 128 | 128 | 32 | > 500 | 31.4 | 1 | 4 | > 128 | > 128 | 16 |
| CCCCCCCCCCCCCCOP(=O)(CCN(CCCN)CCCN)OCCc1c[nH]c2ccccc12.Cl.Cl.Cl.Cl (stereo not given) | 4 | 2 |  | 2 |  | 2 | 12.4 |  |  |  |  |  |  |
| CCCCCOP(=O)(CCN(CCCN)CCCN)OCCCCCCCCCCCCOP(=O)(CCN(CCCN)CCCN)OCCCCC.Cl.Cl.Cl.Cl.Cl.Cl (stereo not given) | 2 |  | 8 | 16 | 16 | 4 | 444 | 34.7 | 0.5 | 1 | 32 | 16 | 4 |
| CCCCCCCCCOP(=O)(CCN(CCCN)CCCN)OCCOCc1ccc(OC)cc1.Cl.Cl.Cl (stereo not given) | 16 | 16 | 128 | 32 | > 133 | 16 | 55 |  |  |  |  |  |  |
| CCCCCCCCCCCCOP(=O)(CCN(CCCN)CCCN)OCCc1c[nH]c2ccccc12.Cl.Cl.Cl.Cl (stereo not given) | 4 | 2 |  | 4 |  | 8 | 12.1 |  |  |  |  |  |  |
| CCCCCCOP(=O)(CCN(CCCN)CCCN)OCCCCCCCCCCCCOP(=O)(CCN(CCCN)CCCN)OCCCCCC.Cl.Cl.Cl.Cl.Cl.Cl (stereo not given) | 0.5 |  |  | 1 |  | 2 |  | 37.7 | 0.125 | 0.5 | 2 | 2 |  |
| CCCCCCCCCOP(=O)(CCN(CCCN)CCCN)OCCc1ccccc1.Cl.Cl.Cl (stereo not given) | 32 | 16 |  | 32 |  | 16 | 58.7 |  |  |  |  |  |  |
| CCCCCCCCCOP(=O)(CCN(CCCN)CCCN)OCCc1cccc2ccccc12.Cl.Cl.Cl (stereo not given) | 2 | 2 | 64 | 4 | 64 | 4 | 12.8 |  |  |  |  |  |  |
| CCCCCCCCCCCCCCCOP(=O)(CCN(CCCN)CCCN)OCC.Cl.Cl.Cl (stereo not given) | 2 | 2 | > 128 | 1 | > 129 | 2 | 6.9 |  |  |  |  |  |  |
| CCCCCCCCOP(=O)(CCN(CCCN)CCCN)OCCOCc1ccccc1.Cl.Cl.Cl (stereo not given) | 128 | 128 | > 128 | > 128 | > 132 | > 128 | > 100 |  |  |  |  |  |  |
| CCCCCCCCCOP(=O)(CCN(CCCN)CCCN)OCCc1ccc(Cl)cc1.Cl.Cl.Cl (stereo not given) | 2 | 2 | 64 | 2 | 64 | 8 | 17.3 |  |  |  |  |  |  |
| CCCCCOP(=O)(CCN(CCCN)CCCN)OCCCCCCCCCCCCCCOP(=O)(CCN(CCCN)CCCN)OCCCCC.Cl.Cl.Cl.Cl.Cl.Cl (stereo not given) | 1 |  |  | 2 |  | 4 |  | 38.1 | 0.5 | 1 | 2 | 2 |  |
| CCCCCCCCCCCCOP(=O)(CCN(CCCN)CCCN)OCCCCCCCCCCCC.Cl.Cl.Cl | 25 | 100 |  | 100 |  | 100 | 11.3 |  |  |  |  |  |  |
| CCCCCCCCCOP(=O)(CCN(CCCN)CCCN)OCCOCc1ccccc1.Cl.Cl.Cl (stereo not given) | 32 | 32 | > 128 | 64 | > 128 | 64 | 79.8 |  |  |  |  |  |  |
| CCCCOP(=O)(CCN(CCCN)CCCN)OCCCCCCCCCCCCCCOP(=O)(CCN(CCCN)CCCN)OCCCC.Cl.Cl.Cl.Cl.Cl.Cl (stereo not given) | 4 |  |  | 16 |  | 4 |  | 35.2 | 0.5 | 2 | 32 | 16 |  |
| CCCCCCCCCOP(=O)(CCN(CCCN)CCCN)OCCc1ccc([N+](=O)[O-])cc1.Cl.Cl.Cl (stereo not given) | 16 | 8 | 64 | 16 | 128 | 8 | 50 |  |  |  |  |  |  |
| CCCCCCOP(=O)(CCN(CCCN)CCCN)OCCc1cccc2ccccc12.Cl.Cl.Cl (stereo not given) | 64 | 64 | > 128 | > 128 | > 131 | 64 | > 100 |  |  |  |  |  |  |
| CCCCCCOP(=O)(CCN(CCCN)CCCN)OCCCCCCCCCCCCCCOP(=O)(CCN(CCCN)CCCN)OCCCCCC.Cl.Cl.Cl.Cl.Cl.Cl (stereo not given) | 1 |  |  | 1 |  | 2 |  | 40.6 | 0.5 | 1 | 1 | 2 |  |
| CCCCCCCCOP(=O)(CCN(CCCN)CCCN)OCCCCCCCCCCCCOP(=O)(CCN(CCCN)CCCN)OCCCCCCCC.Cl.Cl.Cl.Cl.Cl.Cl (stereo not given) | 1 |  |  | 1 |  | 2 |  | 432 | 0.5 | 1 | 1 | 1 |  |
| CCCCCCCCCOP(=O)(CCN(CCCN)CCCN)OCCc1ccc(N)cc1.Cl.Cl.Cl.Cl (stereo not given) | 128 | 64 | > 128 | 128 | > 128 | 128 | > 100 |  |  |  |  |  |  |
| CCCCCCCCCCCCCCOP(=O)(CCN(CCCN)CCCN)OCC.Cl.Cl.Cl (stereo not given) | 4 | 4 | > 128 | 4 | > 128 | 4 | 12.2 |  |  |  |  |  |  |
| CCCCCCCCCCCCCCCCOP(=O)(CCN(CCCN)CCCN)OCC.Cl.Cl.Cl (stereo not given) | 2 | 2 | 128 | 2 | > 130 | 4 | 9.4 |  |  |  |  |  |  |
| CC(C)COP(=O)(CCN(CCCN)CCCN)OCCCCCCCCCCCCCCOP(=O)(CCN(CCCN)CCCN)OCC(C)C.Cl.Cl.Cl.Cl.Cl.Cl (stereo not given) | 4 |  |  | 16 |  | 4 |  | 27.3 | 0.5 | 4 | 16 | 16 |  |
